Where a name gives a salt, the structure may show the parent alone. Read-outs that look alike come from different tables or passages of the source.
Molecular target: LSD1 (Homo sapiens, UniProt O60341)
Assay: Biochemical assay for LSD1 activity (LSD1 demethylase TR-FRET)
[1] = Table 5, biotinylated H3K4me1 peptide, 50 minutes at room temperature, TR-FRET, read-out: LSD1_Pep_TR-FRET_1.0 (IC50 T50)
[2] = Table 6, biotinylated H3K4me1 peptide, 50 minutes at room temperature, TR-FRET, read-out: LSD1_Pep_TR-FRET_1.0 (IC50 T50)

Compound	IC50 [1] [nM]	IC50 [2] [nM]	also measured
O=C(O)CCN1CCC(CNC2CC2/C=C/c2ccccc2)CC1 (centres unmarked) [Compound 105, (E)-3-(4-(((2-styrylcyclopropyl)amino)methyl)piperidin-1-yl)propanoic acid]	100 to 1000	–	–
C(=C\C1CC1NCC1CCN(Cc2ccccc2)CC1)/c1ccccc1 (centres unmarked) [Compound 106]	100 to 1000	–	–
O=C(O)CN1CCC(CNC2CC2/C=C/c2ccccc2)CC1 (centres unmarked) [Compound 111, (E)-3-(4-(((2-styrylcyclopropyl)amino)methyl)piperidin-1-yl)acetic acid]	< 100	–	–
CC1(N)CC1/C=C/c1ccccc1 (centres unmarked) [Compound 112, 1-methyl-2-((E)-styryl)cyclopropanamine]	100 to 1000	–	–
CCS(=O)(=O)CCN1CCC(CNC2CC2/C=C/c2ccccc2)CC1 (centres unmarked) [Compound 113]	< 100	–	–
CC(=Cc1ccc(C#N)cc1)C1CC1N (centres unmarked) [Compound 129, 4-(2-(2-aminocyclopropyl)prop-1-en-1-yl)benzonitrile Hydrochloride]	–	–	IC50: > 10000 nM

Continued, in another order:

IC50 [1] [nM]	IC50 [2] [nM]	Compound	also measured
–	< 100	CCC1(NCC2CCNCC2)CC1/C(C)=C/c1ccccc1 (centres unmarked) [Compound 173, 1-ethyl-2-((E)-1-phenylprop-1-en-2-yl)-N-(piperidin-4-ylmethyl)cyclopropanamine Dihydrochloride]	–
–	< 100	CCC1(NC2CCNCC2)CC1/C(C)=C/c1ccccc1 (centres unmarked) [Compound 174, bis(trifluoroacetic Acid) Salt]	–
–	< 100	Fc1ccccc1/C=C/C1CC1NCC1CCNCC1 (centres unmarked) [Compound 186, (E)-2-(2-fluorostyryl)-N-(piperidin-4-ylmethyl)cyclopropan-1-amine Dihydrochloride]	–
–	1000 to 10000	COc1ccc(/C=C(\C)[C@@H]2C[C@H]2N)cc1 [compound 130, 2,2,2-trifluoroacetate]	–
–	100 to 1000	C/C(=C\c1ccccc1)[C@@H]1C[C@H]1NC1CCN(Cc2ccc(C(=O)O)cc2)CC1 [compound 192]	–

Source: patent US10526287B2, “LSD1 inhibitors and uses thereof” (Constellation Pharmaceuticals, Inc., priority 2015, dated 2020)
